Experimental data reported in ChEMBL document CHEMBL4311994, “New 2,6-diaminopyridines containing a sterically hindered benzylphosphonate moiety in the aromatic core as potential antioxidant and anti-cancer drugs” (Eur J Med Chem, 2019).
The source made the active and inactive calls. No cut-off for these calls is given here.

Tests used:
[1] = Antioxidant activity assessed as ABAP free radical scavenging activity by measuring decrease in chemiluminescence intensity at 0.25 to 1 mM by luminescence based assay; type: functional
MCF7 = assay: Antiproliferative activity against human MCF7 cells by fluorescence based viable cell counting method; type: functional
[2] = Cytotoxicity against human Chang cells assessed as reduction in cell viability by fluorescence based viable cell counting method
M-HeLa [3] = assay: Antiproliferative activity against human M-HeLa cells by fluorescence based viable cell counting method; type: functional
[4] = Hemolytic activity in human erythrocytes at 100.0 +/- 7.8 uM incubated for 1 hrs by photometric analysis relative to control; type: ADME, cell-based, Erythrocyte; details: read-out: Activity
[5] = Hemolytic activity in human erythrocytes at 50.0 +/- 4.3 uM incubated for 1 hrs by photometric analysis relative to control; type: ADME, cell-based, Erythrocyte; details: read-out: Activity
[6] = Hemolytic activity in human erythrocytes at 10.0 +/- 0.8 uM incubated for 1 hrs by photometric analysis relative to control; type: ADME, cell-based, Erythrocyte; details: read-out: Activity
Candida albicans = assay: Antimicrobial activity against Candida albicans 855-653 by serial dilution method; type: functional
Bacillus cereus = assay: Antimicrobial activity against Bacillus cereus ATCC 8035 by serial dilution method; type: functional
Aspergillus niger = assay: Antimicrobial activity against Aspergillus niger BKMF 1119 by serial dilution method; type: functional
Escherichia coli = assay: Antimicrobial activity against Escherichia coli CDC F-50 by serial dilution method; type: functional
Pseudomonas aeruginosa = assay: Antimicrobial activity against Pseudomonas aeruginosa ATCC 9027 by serial dilution method; type: functional
[7] = test system: Trichophyton mentagrophytes; assay: Antimicrobial activity against Trichophyton mentagrophytes var. gypseum 1773 by serial dilution method; type: functional
Staphylococcus aureus = assay: Antimicrobial activity against Staphylococcus aureus ATCC 209P by serial dilution method; type: functional
PC-3 = assay: Antiproliferative activity against human PC3 cells by fluorescence based viable cell counting method; type: functional
A549 = assay: Antiproliferative activity against human A549 cells by fluorescence based viable cell counting method; type: functional
M-HeLa [8] = assay: Induction of apoptosis in human M-HeLa cells assessed as increase in bcl2 expression at IC50 incubated for 24 hrs by luminescence based assay; type: functional, cell-based
M-HeLa [9] = assay: Induction of apoptosis in human M-HeLa cells assessed as effect on Bad expression at IC50 incubated for 24 hrs by luminescence based assay; type: functional, cell-based
M-HeLa [10] = assay: Induction of apoptosis in human M-HeLa cells assessed as increase in JNK expression at IC50 incubated for 24 hrs by luminescence based assay; type: functional, cell-based
M-HeLa [11] = assay: Induction of apoptosis in human M-HeLa cells assessed as increase in p53 expression at IC50 incubated for 24 hrs by luminescence based assay; type: functional, cell-based
M-HeLa [12] = assay: Induction of apoptosis in human M-HeLa cells assessed as increase in Akt expression at IC50 incubated for 24 hrs by luminescence based assay; type: functional, cell-based
M-HeLa [13] = assay: Induction of apoptosis in human M-HeLa cells assessed as increase in caspase 8 expression at IC50 incubated for 24 hrs by luminescence based assay; type: functional, cell-based
M-HeLa [14] = assay: Induction of apoptosis in human M-HeLa cells assessed as increase in caspase 9 expression at IC50 incubated for 24 hrs by luminescence based assay relative to control; type: functional
[15] = Homo sapiens, MCF7, read-out: IC50
[16] = Homo sapiens, M-HeLa, read-out: IC50

SMILES | Activity [1] | IC50 (MCF7; [15]) | IC50 ([2]; Homo sapiens, read-out: IC50) | IC50 (M-HeLa [3]; [16]) | hemolysis at 1 h, 100 uM [4] | hemolysis at 1 h, 50 uM [5] | hemolysis at 1 h, 10 uM [6] | MIC (Candida albicans) | MIC (Bacillus cereus) | MIC (Aspergillus niger) | MIC (Escherichia coli) | MIC (Pseudomonas aeruginosa) | MIC [7] | MIC (Staphylococcus aureus) | other results
CC(C)OP(=O)(C=C1C=C(C(C)(C)C)C(=O)C(C(C)(C)C)=C1)OC(C)C | Active | 66 µM | 22.4 µM | 10.1 µM | – | – | – | – | – | – | – | – | – | – | –
COP(=O)(Cc1cc(C(C)(C)C)c(O)c(C(C)(C)C)c1)OC | Active | > 100 µM | > 100 µM | 26 µM | 0% | 0% | 0% | – | – | – | – | – | – | – | –
CC/C(=C(\c1ccccc1)c1ccc(OCCN(C)C)cc1)c1ccccc1 [TAMOXIFEN] | – | – | 42.1 µM | – | – | – | – | – | – | – | – | – | – | – | –
CC(C)OP(=O)(OC(C)C)C(c1cc(C(C)(C)C)c(O)c(C(C)(C)C)c1)c1ccc(N)cc1N (centres undefined) | Active | – | – | – | – | – | – | > 500 µM | > 500 µM | > 500 µM | > 500 µM | > 500 µM | > 500 µM | > 500 µM | –
CC(C)OP(=O)(OC(C)C)C(c1cc(C(C)(C)C)c(O)c(C(C)(C)C)c1)c1ccc(N)nc1N (centres undefined) | Active | 21.8 µM | > 100 µM | 38 µM | 0.3% | 0% | 0% | > 500 µM | > 500 µM | > 500 µM | > 500 µM | > 500 µM | > 500 µM | > 500 µM | –
COP(=O)(OC)C(c1cc(C(C)(C)C)c(O)c(C(C)(C)C)c1)c1ccc(N)nc1N (centres undefined) | Active | 31 µM | > 100 µM | 16.1 µM | 0% | 0% | 0% | > 500 µM | > 500 µM | > 500 µM | > 500 µM | > 500 µM | > 500 µM | > 500 µM | Activity (PC-3): inactive; Activity (A549): inactive
CC(C)OP(=O)(Cc1cc(C(C)(C)C)c(O)c(C(C)(C)C)c1)OC(C)C | Active | 68.2 µM | 96 µM | 30 µM | – | – | – | – | – | – | – | – | – | – | –
CC(C)(C)c1cc(CP(=O)(Oc2ccccc2)Oc2ccccc2)cc(C(C)(C)C)c1O | Active | > 100 µM | 40 µM | 15.6 µM | – | – | – | – | – | – | – | – | – | – | –
CCOP(=O)(OCC)C(c1cc(C(C)(C)C)c(O)c(C(C)(C)C)c1)c1ccc(N)nc1N (centres undefined) | Active | 34.2 µM | > 100 µM | 17.1 µM | 0% | 0% | 0% | > 500 µM | > 500 µM | > 500 µM | > 500 µM | > 500 µM | > 500 µM | > 500 µM | –
CC(C)(C)C1=CC(=CP(=O)(Oc2ccccc2)Oc2ccccc2)C=C(C(C)(C)C)C1=O | Active | 38.4 µM | 17 µM | 14.3 µM | – | – | – | – | – | – | – | – | – | – | –
COP(=O)(OC)C(c1cc(C(C)(C)C)c(O)c(C(C)(C)C)c1)c1ccc(N)cc1N (centres undefined) | Active | > 100 µM | > 100 µM | 45.3 µM | 0% | 0% | 0% | > 500 µM | > 500 µM | > 500 µM | > 500 µM | > 500 µM | > 500 µM | > 500 µM | –
CCCOP(=O)(OCCC)C(c1cc(C(C)(C)C)c(O)c(C(C)(C)C)c1)c1ccc(N)nc1N (centres undefined) | Active | 32.3 µM | 28.1 µM | 11.1 µM | – | – | – | – | – | – | – | – | – | – | –
COP(=O)(C=C1C=C(C(C)(C)C)C(=O)C(C(C)(C)C)=C1)OC | Active | > 100 µM | 24.1 µM | 17.2 µM | – | – | – | – | – | – | – | – | – | – | –
CCOP(=O)(OCC)C(c1cc(C(C)(C)C)c(O)c(C(C)(C)C)c1)c1ccc(N)cc1N (centres undefined) | Active | 68.2 µM | 54.9 µM | 39 µM | 0% | 0% | 0% | > 500 µM | > 500 µM | > 500 µM | > 500 µM | > 500 µM | > 500 µM | > 500 µM | –
CC(C)(C)c1cc(C(c2ccc(N)cc2N)P(=O)(Oc2ccccc2)Oc2ccccc2)cc(C(C)(C)C)c1O (centres undefined) | Active | – | – | – | 1.9% | 0.9% | 0% | > 500 µM | > 500 µM | > 500 µM | > 500 µM | > 500 µM | > 500 µM | > 500 µM | IC50 (MCF7; mcf7): Nd(Toxic); IC50 [2]: Nd(Toxic); IC50 (M-HeLa [3]; m-hela): Nd(Toxic)
COc1cccc2c1C(=O)c1c(O)c3c(c(O)c1C2=O)C[C@@](O)(C(=O)CO)C[C@@H]3O[C@H]1C[C@H](N)[C@H](O)[C@H](C)O1 [DOXORUBICIN] | – | – | 1.3 µM | 3 µM | – | – | – | – | – | – | – | – | – | – | –
CC(C)(C)c1cc(C(c2ccc(N)nc2N)P(=O)(Oc2ccccc2)Oc2ccccc2)cc(C(C)(C)C)c1O (centres undefined) | Active | 16 µM | 52 µM | 7.4 µM | 1.9% | 0.5% | 0% | > 500 µM | > 500 µM | > 500 µM | > 500 µM | > 500 µM | > 500 µM | > 500 µM | Activity (M-HeLa [8]): Active; Activity (M-HeLa [9]): inactive; Activity (M-HeLa [10]): Active; Activity (M-HeLa [11]): Active; Activity (M-HeLa [12]): Active; Activity (M-HeLa [13]): inactive; fold change (FC) (M-HeLa [14]): 2
